For one test, the system named is HOP-62. The test can be described thus: Cytotoxicity against human HOP62 cells at 10 uM assessed as cell growth relative to control. In kind it is functional. As to conditions: read-out: Activity.
Another test concerns MDA-MB-468. The test can be described thus: Cytotoxicity against human MDA-MB-468 cells at 10 uM assessed as cell growth relative to control. As to conditions: read-out: Activity. In kind it is functional.
Another test concerns SF-295. The test can be described thus: Cytotoxicity against human SF295 cells at 10 uM assessed as cell growth relative to control. The class given is functional. The note with it: read-out: Activity.
For the next test, the system named is HCT-15. The test can be described thus: Cytotoxicity against human HCT15 cells at 10 uM assessed as cell growth relative to control. In kind it is functional. The note with it: read-out: Activity.
The next test deals with NCI/ADR-RES. In words: Cytotoxicity against human NCI/ADR-RES cells at 10 uM assessed as cell growth relative to control. In kind it is functional. The note with it: read-out: Activity.
Test [1] concerns the target Dual specificity mitogen-activated protein kinase kinase; MEK1/2 (Homo sapiens) (UniProt P36507+Q02750). As to conditions: HEK293, at 10 µM.
Description: Inhibition of EGF-induced MEK1/2 activity in HEK293 cells assessed as phosphorylated ERK1/2 level at 10 uM after 1 hr by Western blotting relative to control
In the next test the test system is 786-0. In words: Cytotoxicity against human 786-0 cells at 10 uM assessed as cell growth relative to control. As to conditions: read-out: Activity. The class given is functional.
Another test concerns DU-145. In words: Cytotoxicity against human DU145 cells at 10 uM assessed as cell growth relative to control. The class given is functional. As to conditions: read-out: Activity.
Another test relates to EKVX. The test can be described thus: Cytotoxicity against human EKVX cells at 10 uM assessed as cell growth relative to control. The note with it: read-out: Activity. In kind it is functional.
Test [2] is described as follows: Cytotoxicity against human […] cells at 10 uM assessed as cell growth relative to control. In kind it is functional. As to conditions: read-out: Activity.
The next test relates to IGROV-1. In words: Cytotoxicity against human IGROV1 cells at 10 uM assessed as cell growth relative to control. In kind it is functional. As to conditions: read-out: Activity.
In a further test the test system is HCC 2998. In words: Cytotoxicity against human HCC2998 cells at 10 uM assessed as cell growth relative to control. In kind it is functional. The note with it: read-out: Activity.
In another test the test system is NCI-H460. The test can be described thus: Cytotoxicity against human NCI-H460 cells at 10 uM assessed as cell growth relative to control. The class given is functional. As to conditions: read-out: Activity.
A further test has as its system A498. In words: Cytotoxicity against human A498 cells at 10 uM assessed as cell growth relative to control. In kind it is functional. The note with it: read-out: Activity.
The subject of a further test is MDA-MB-231. In words: Cytotoxicity against human MDA-MB-231 cells at 10 uM assessed as cell growth relative to control. The class given is functional. As to conditions: read-out: Activity.
The test system of the next test is PC-3. In words: Cytotoxicity against human PC3 cells at 10 uM assessed as cell growth relative to control. In kind it is functional. The note with it: read-out: Activity.

Dual specificity mitogen-activated protein kinase kinase; MEK1/2 (Homo sapiens), sequence (P36507 whole entry, looked up): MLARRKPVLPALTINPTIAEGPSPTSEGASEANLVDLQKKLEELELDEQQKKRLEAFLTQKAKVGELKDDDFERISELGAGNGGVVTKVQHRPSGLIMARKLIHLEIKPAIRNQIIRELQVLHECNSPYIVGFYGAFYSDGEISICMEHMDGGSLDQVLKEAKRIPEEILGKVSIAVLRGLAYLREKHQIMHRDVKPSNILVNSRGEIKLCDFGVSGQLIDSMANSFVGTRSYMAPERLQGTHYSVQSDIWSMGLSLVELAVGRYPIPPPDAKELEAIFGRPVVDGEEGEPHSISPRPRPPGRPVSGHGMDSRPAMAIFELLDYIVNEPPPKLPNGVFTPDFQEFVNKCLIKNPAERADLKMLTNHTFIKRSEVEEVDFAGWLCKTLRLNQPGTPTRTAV
Dual specificity mitogen-activated protein kinase kinase; MEK1/2 (Homo sapiens), sequence (Q02750 whole entry, looked up): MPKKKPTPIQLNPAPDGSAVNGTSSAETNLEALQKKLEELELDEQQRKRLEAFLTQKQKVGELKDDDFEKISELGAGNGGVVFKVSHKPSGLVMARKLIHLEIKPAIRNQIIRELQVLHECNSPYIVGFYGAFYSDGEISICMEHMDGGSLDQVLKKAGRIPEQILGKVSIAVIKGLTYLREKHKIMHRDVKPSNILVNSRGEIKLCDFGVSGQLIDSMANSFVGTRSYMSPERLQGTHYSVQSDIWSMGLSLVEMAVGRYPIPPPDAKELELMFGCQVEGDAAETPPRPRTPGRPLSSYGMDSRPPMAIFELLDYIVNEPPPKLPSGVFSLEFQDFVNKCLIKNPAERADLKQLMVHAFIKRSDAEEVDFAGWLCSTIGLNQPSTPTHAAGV

For orientation: inhibition means the share of the control response that was lost under treatment. Consider `COc1cc(NCc2ccccc2)c2ncn(C(C)C)c2c1`, for which the growth at 10 µM was 101% in the test with HOP-62; 36.5% in the test with MDA-MB-468; 138% in the test on SF-295; 97.9% with HCT-15; 96.7% with NCI/ADR-RES; 96.5% with 786-0. For the same compound, the growth at 10 µM with DU-145 worked out at 136%; in the test on EKVX, 93.9%; in [2] it was 71.5%; in the test with IGROV-1 it was 92.4%; with HCC 2998 it was 105%; in the test on NCI-H460, 107%. Moreover, the growth at 10 µM in the test on A498 came to 106%; with MDA-MB-231 it was 111%. The compound further yielded an inhibition in test [1] of 54%.

For the compound `COCCCOc1cc(NCc2ccccc2)c2ncn(C(C)C)c2c1`, the growth at 10 µM came to 85.7% with HOP-62; 104% in the test with MDA-MB-468; 97.4% in the test with SF-295; 110% with HCT-15; 85.3% with NCI/ADR-RES; 95.7% with 786-0. The growth at 10 µM was 99.2% with DU-145; 95.4% in the test with EKVX; 89.2% in test [2]; 90.1% in the test with IGROV-1; 96.1% with PC-3; 91.7% in the test on HCC 2998. Also, the growth at 10 µM in the test with NCI-H460 was 85.2%; with A498 it was 83.5%; in the test with MDA-MB-231, 102%.

The values are drawn from ChEMBL document CHEMBL1275384, “Structure-activity relationships of benzimidazole-based selective inhibitors of the mitogen activated kinase-5 signaling pathway” (2010).
